Square brackets hold non-standard residues; d marks the D form. Peptide text beside a SMILES is read from it.
Experiments:
Proteinase K [1] = target: Proteinase K (Parengyodontium album, UniProt P06873); test: in vitro; details: Proteinase K 5 μg/mL
Experimental: (§1) Degradation was monitored by HPLC. Solutions of individual coiled coils were prepared at 200 μM in 1× PBS and pH corrected to 7.40 ± 0.05 using 1–15 μL of 1 M NaOH. A stock solution of Proteinase K enzyme was prepared at 0.5 mg/mL. For each pair of peptides, 1.5 mL of each 200 μM solution was mixed, then 30 μL of 0.5 mg/mL Proteinase K was added to the 3 mL total mixed solution to obtain a final concentration of 5 μg/mL Proteinase K. Each degradation solution was stirred at 250 rpm for the duration of the experiment. For each time point, a 1 mL aliquot of degradation solution was added to an HPLC vial, a 100 μL injection was performed on HPLC, and the remaining 900 μL was returned to the bulk degradation solution. To normalize for slight shifts in elution time due to changing solvent or environmental conditions, a MATLAB script (included in SI) was used to align all K4^7 (for heptad degradation) or K3^11 (for hendecad degradation) peaks to the same elution time as the elution at t = 0 h.
(§2) Solutions of K4^7 and E4^7 (200 μM in 1× PBS at pH 7.4) were blended as homochiral (L-K4^7/L-E4^7) or heterochiral (D-K4^7/L-E4^7) mixtures. These blends were then incubated with 5 μg/mL Proteinase K, an enzyme known for its broad-spectrum activity and expected to cleave after the I, A, L, and E residues of these peptides.[40] Immediately after adding Proteinase K, as well as after 1, 3, 6, 12, and 24 h incubations, we used high performance liquid chromatography (HPLC) to monitor the degradation of the coiled coils.
(§3) We incubated solutions of homochiral (L-K3^11/L-E3^11) or heterochiral (D-K3^11/L-E3^11) hendecad coiled coils with 5 μg/mL Proteinase K as we did for the heptad coiled coils (200 μM each in 1× PBS at pH 7.4).

Proteinase K [2] = test: in vitro; details: isolated enzyme proteinase k
Experimental: as §1, §2, §3

[3] = cited from earlier work
From the text: For example, 1:1 heterochir ...

[4] = pH 7.4, percent intact by peak area (Normalized Area)

Chain of Proteinase K (Parengyodontium album, UniProt P06873) (P06873 106-384): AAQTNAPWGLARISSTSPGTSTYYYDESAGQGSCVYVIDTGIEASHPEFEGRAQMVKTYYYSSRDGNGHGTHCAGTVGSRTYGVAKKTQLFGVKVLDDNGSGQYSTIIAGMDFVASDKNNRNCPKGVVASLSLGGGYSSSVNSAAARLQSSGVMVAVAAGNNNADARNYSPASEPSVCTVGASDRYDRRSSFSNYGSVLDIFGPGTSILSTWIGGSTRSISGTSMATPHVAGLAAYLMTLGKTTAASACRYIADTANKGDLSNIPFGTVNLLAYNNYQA

Compound: CC[C@@H](C)[C@@H](NC(=O)[C@H](N)CCCCN)C(=O)N[C@H](C)C(=O)N[C@H](C)C(=O)N[C@H](CC(C)C)C(=O)N[C@H](CCCCN)C(=O)N[C@H](CCC(=O)O)C(=O)N[C@H](CCCCN)C(=O)N[C@@H](C(=O)N[C@H](C)C(=O)N[C@H](C)C(=O)N[C@H](CCCCN)C(=O)N[C@@H](C(=O)N[C@H](C)C(=O)N[C@H](C)C(=O)N[C@H](CC(C)C)C(=O)N[C@H](CCCCN)C(=O)N[C@H](CCC(=O)O)C(=O)N[C@H](CCCCN)C(=O)N[C@@H](C(=O)N[C@H](C)C(=O)N[C@H](C)C(=O)N[C@H](CCCCN)C(=O)N[C@@H](C(=O)N[C@H](C)C(=O)N[C@H](C)C(=O)N[C@H](CC(C)C)C(=O)N[C@H](CCCCN)C(=O)N[C@H](CCC(=O)O)C(=O)N[C@H](CCCCN)C(=O)N[C@@H](C(=O)N[C@H](C)C(=O)N[C@H](C)C(N)=O)[C@H](C)CC)[C@H](C)CC)[C@H](C)CC)[C@H](C)CC)[C@H](C)CC [D-K3^11] (H-[dK][dI][dA][dA][dL][dK][dE][dK][dI][dA][dA][dK][dI][dA][dA][dL][dK][dE][dK][dI][dA][dA][dK][dI][dA][dA][dL][dK][dE][dK][dI][dA][dA]-NH2)
- stability in the heterochiral complex (in words) (Proteinase K [1]; heterochiral blend D-K3^11:L-E3^11, 1× PBS pH 7.4, HPLC, 30 h incubation): remains largely stable

Compound: CC[C@@H](C)[C@@H](NC(=O)[C@H](N)CCCCN)C(=O)N[C@H](C)C(=O)N[C@H](C)C(=O)N[C@H](CC(C)C)C(=O)N[C@H](CCCCN)C(=O)N[C@H](CCC(=O)O)C(=O)N[C@H](CCCCN)C(=O)N[C@@H](C(=O)N[C@H](C)C(=O)N[C@H](C)C(=O)N[C@H](CC(C)C)C(=O)N[C@H](CCCCN)C(=O)N[C@H](CCC(=O)O)C(=O)N[C@H](CCCCN)C(=O)N[C@@H](C(=O)N[C@H](C)C(=O)N[C@H](C)C(=O)N[C@H](CC(C)C)C(=O)N[C@H](CCCCN)C(=O)N[C@H](CCC(=O)O)C(=O)N[C@H](CCCCN)C(=O)N[C@@H](C(=O)N[C@H](C)C(=O)N[C@H](C)C(=O)N[C@H](CC(C)C)C(=O)N[C@H](CCCCN)C(=O)N[C@H](CCC(=O)O)C(N)=O)[C@H](C)CC)[C@H](C)CC)[C@H](C)CC [D-K4^7] (H-[dK][dI][dA][dA][dL][dK][dE][dK][dI][dA][dA][dL][dK][dE][dK][dI][dA][dA][dL][dK][dE][dK][dI][dA][dA][dL][dK][dE]-NH2)
- degradation in the heterochiral blend (in words) (Proteinase K [1]; heterochiral blend D-K4^7:L-E4^7, 1× PBS pH 7.4, HPLC, up to 24 h): little to no degradation
- remaining at 1 h, 100 μM (Proteinase K [2]; [4]): 97%
- remaining at 3 h, 100 μM (Proteinase K [2]; [4]): 97%

Compound: CC[C@H](C)[C@H](NC(=O)[C@H](CCC(=O)O)NC(=O)[C@H](C)NC(=O)[C@H](C)NC(=O)[C@@H](NC(=O)[C@H](CCC(=O)O)NC(=O)[C@H](CCCCN)NC(=O)[C@H](CCC(=O)O)NC(=O)[C@H](CC(C)C)NC(=O)[C@H](C)NC(=O)[C@H](C)NC(=O)[C@@H](NC(=O)[C@H](CCC(=O)O)NC(=O)[C@H](C)NC(=O)[C@H](C)NC(=O)[C@@H](NC(=O)[C@H](CCC(=O)O)NC(=O)[C@H](CCCCN)NC(=O)[C@H](CCC(=O)O)NC(=O)[C@H](CC(C)C)NC(=O)[C@H](C)NC(=O)[C@H](C)NC(=O)[C@@H](NC(=O)[C@@H](N)CCC(=O)O)[C@@H](C)CC)[C@@H](C)CC)[C@@H](C)CC)[C@@H](C)CC)C(=O)N[C@@H](C)C(=O)N[C@@H](C)C(=O)N[C@@H](CC(C)C)C(=O)N[C@@H](CCC(=O)O)C(=O)N[C@@H](CCCCN)C(=O)N[C@@H](CCC(=O)O)C(=O)N[C@H](C(=O)N[C@@H](C)C(=O)N[C@@H](C)C(N)=O)[C@@H](C)CC [L-E3^11] (H-EIAALEKEIAAEIAALEKEIAAEIAALEKEIAA-NH2)
- remaining at 3 h, 100 μM (Proteinase K [2]; [4]): 7%
- remaining at 6 h, 100 μM (Proteinase K [2]; [4]): 0%
- remaining at 12 h, 100 μM (Proteinase K [2]; [4]): 0%
- remaining at 168 h, 100 μM (Proteinase K [2]; pH 7.4, percent of the peptide remaining): 23%

Compound: CC[C@H](C)[C@H](NC(=O)[C@H](CCC(=O)O)NC(=O)[C@H](CCCCN)NC(=O)[C@H](CCC(=O)O)NC(=O)[C@H](CC(C)C)NC(=O)[C@H](C)NC(=O)[C@H](C)NC(=O)[C@@H](NC(=O)[C@H](CCC(=O)O)NC(=O)[C@H](CCCCN)NC(=O)[C@H](CCC(=O)O)NC(=O)[C@H](CC(C)C)NC(=O)[C@H](C)NC(=O)[C@H](C)NC(=O)[C@@H](NC(=O)[C@H](CCC(=O)O)NC(=O)[C@H](CCCCN)NC(=O)[C@H](CCC(=O)O)NC(=O)[C@H](CC(C)C)NC(=O)[C@H](C)NC(=O)[C@H](C)NC(=O)[C@@H](NC(=O)[C@@H](N)CCC(=O)O)[C@@H](C)CC)[C@@H](C)CC)[C@@H](C)CC)C(=O)N[C@@H](C)C(=O)N[C@@H](C)C(=O)N[C@@H](CC(C)C)C(=O)N[C@@H](CCC(=O)O)C(=O)N[C@@H](CCCCN)C(N)=O [L-E4^7] (H-EIAALEKEIAALEKEIAALEKEIAALEK-NH2)
- time within which the intact peak disappears completely (Proteinase K [1]; heterochiral blend D-K4^7:L-E4^7, 1× PBS pH 7.4, HPLC peak at 6.9 min): ≤ 12 h
- remaining at 3 h, 100 μM (Proteinase K [2]; pH 7.4): 71%
- remaining at 6 h, 100 μM (Proteinase K [2]; pH 7.4): 12%
- remaining at 12 h, 100 μM (Proteinase K [2]; pH 7.4): 1%
- remaining at 24 h, 100 μM (Proteinase K [2]; pH 7.4): 0%

Compound: CC[C@H](C)[C@H](NC(=O)[C@H](CCCCN)NC(=O)[C@H](C)NC(=O)[C@H](C)NC(=O)[C@@H](NC(=O)[C@H](CCCCN)NC(=O)[C@H](CCC(=O)O)NC(=O)[C@H](CCCCN)NC(=O)[C@H](CC(C)C)NC(=O)[C@H](C)NC(=O)[C@H](C)NC(=O)[C@@H](NC(=O)[C@H](CCCCN)NC(=O)[C@H](C)NC(=O)[C@H](C)NC(=O)[C@@H](NC(=O)[C@H](CCCCN)NC(=O)[C@H](CCC(=O)O)NC(=O)[C@H](CCCCN)NC(=O)[C@H](CC(C)C)NC(=O)[C@H](C)NC(=O)[C@H](C)NC(=O)[C@@H](NC(=O)[C@@H](N)CCCCN)[C@@H](C)CC)[C@@H](C)CC)[C@@H](C)CC)[C@@H](C)CC)C(=O)N[C@@H](C)C(=O)N[C@@H](C)C(=O)N[C@@H](CC(C)C)C(=O)N[C@@H](CCCCN)C(=O)N[C@@H](CCC(=O)O)C(=O)N[C@@H](CCCCN)C(=O)N[C@H](C(=O)N[C@@H](C)C(=O)N[C@@H](C)C(N)=O)[C@@H](C)CC [L-K3^11] (H-KIAALKEKIAAKIAALKEKIAAKIAALKEKIAA-NH2)
- time to complete degradation (Proteinase K [1]; homochiral blend L-K3^11:L-E3^11, 1× PBS pH 7.4, HPLC): under 6 h
- remaining at 1 h, 100 μM (Proteinase K [2]; pH 7.4): 77%
- remaining at 3 h, 100 μM (Proteinase K [2]; pH 7.4): 11%
- remaining at 6 h, 100 μM (Proteinase K [2]; pH 7.4): 0%
- remaining at 12 h, 100 μM (Proteinase K [2]; pH 7.4): 0%
- remaining at 30 h, 100 μM (Proteinase K [2]; pH 7.4): 0%

Compound: CC[C@H](C)[C@H](NC(=O)[C@H](CCCCN)NC(=O)[C@H](CCC(=O)O)NC(=O)[C@H](CCCCN)NC(=O)[C@H](CC(C)C)NC(=O)[C@H](C)NC(=O)[C@H](C)NC(=O)[C@@H](NC(=O)[C@H](CCCCN)NC(=O)[C@H](CCC(=O)O)NC(=O)[C@H](CCCCN)NC(=O)[C@H](CC(C)C)NC(=O)[C@H](C)NC(=O)[C@H](C)NC(=O)[C@@H](NC(=O)[C@H](CCCCN)NC(=O)[C@H](CCC(=O)O)NC(=O)[C@H](CCCCN)NC(=O)[C@H](CC(C)C)NC(=O)[C@H](C)NC(=O)[C@H](C)NC(=O)[C@@H](NC(=O)[C@@H](N)CCCCN)[C@@H](C)CC)[C@@H](C)CC)[C@@H](C)CC)C(=O)N[C@@H](C)C(=O)N[C@@H](C)C(=O)N[C@@H](CC(C)C)C(=O)N[C@@H](CCCCN)C(=O)N[C@@H](CCC(=O)O)C(N)=O [L-K4^7] (H-KIAALKEKIAALKEKIAALKEKIAALKE-NH2)
- remaining at 3 h, 100 μM (Proteinase K [2]; [4]): 74%
- remaining at 24 h, 100 μM (Proteinase K [2]; [4]): 0%

Compound: (PPG)10
- solubility of heterochiral mixtures ([3]; heterochiral mixtures of triple helices): precipitate
- solubility of homochiral triple helices ([3]; homochiral triple helices): soluble

Source: article PMC11323006, “Designing Coiled Coils for Heterochiral Complexation to Enhance Binding and Enzymatic Stability” (Biomacromolecules, 2024)
